Test [1] deals with Candida albicans ATCC 10231. The test is described as follows: Antimicrobial activity, agar well diffusion method. Format: cell-based. The following applies: 37 °C, 24 h. The protocol: (§1) Antimicrobial activity of compounds 1 to 6 and crude extracts 7a, 8a, 9a; 10 to 13 were measured using the agar well diffusion method. Bacterial and fungal pathogens such as S. aureus (ATCC 6538), E. coli (ATCC 11229) and C. albicans (ATCC 10231) were used as indicator strains for this analysis. These microorganisms were aseptically inoculated into appropriate liquid media and incubated at 37 °C. After 16 h, the cells were centrifuged at 6000 rpm for 10 min and then suspended in sterile water. The different cells (1 mL) were added to appropriate agar media (100 mL) prior to plating, and the wells were made using an agar well borer. To these wells, different concentrations of compounds 1 to 6 and the extracts 7a, 8a, 9a; 10 to 13 were added and subsequently incubated at 37 °C for 24 h. Zones of inhibition were estimated by measuring the diameter of the microbial growth inhibition zones. Values were averaged from three independent experiments.

Test [2] concerns Staphylococcus aureus ATCC 6538. Nature of the test: Antimicrobial activity, agar well diffusion method. The class given is cell-based. The conditions noted are these: 37 °C, 24 h. The protocol: as §1
On the technique in general: In agar diffusion tests the substance spreads into inoculated agar from a disc or well.

In test [3] the test system is Escherichia coli ATCC 11229. The test is described as follows: Antimicrobial activity, agar well diffusion method. The class given is cell-based. The following applies: 37 °C, 24 h. As to the method: as §1
Test [4] has as its target T1, Protein tyrosine phosphatase 1B (PTP-1B) (Homo sapiens, UniProt P18031).
T1 sequence (P18031 1-435): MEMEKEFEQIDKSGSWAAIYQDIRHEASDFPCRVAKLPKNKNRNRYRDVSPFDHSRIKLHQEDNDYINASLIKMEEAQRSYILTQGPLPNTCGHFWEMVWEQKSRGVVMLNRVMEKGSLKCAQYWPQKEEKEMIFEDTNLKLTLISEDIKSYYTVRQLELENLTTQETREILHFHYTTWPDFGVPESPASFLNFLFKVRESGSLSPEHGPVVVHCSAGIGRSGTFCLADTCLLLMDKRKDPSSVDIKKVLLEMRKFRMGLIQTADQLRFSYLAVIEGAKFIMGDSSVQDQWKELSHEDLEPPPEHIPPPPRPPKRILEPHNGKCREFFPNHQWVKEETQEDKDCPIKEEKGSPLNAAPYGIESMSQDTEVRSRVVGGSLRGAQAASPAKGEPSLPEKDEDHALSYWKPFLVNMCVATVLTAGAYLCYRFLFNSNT
The test is described as follows: Protein tyrosine phosphatase 1B (PTP-1B) inhibition assay with pNPP substrate. Format: biochemical. The protocol:
Compounds were pre-incubated with the enzyme at room temperature for 5 min. Then, 178 µL of buffer solution (20 mM HEPES, 150 mM NaCl, 1 mM EDTA) was added in 96-well plates. […] After that, 1 µL of test and positive control sample were added. Thereafter, 20 µL of the substrate pNPP (35 mM) was added and mixed for 10 min. The plate was incubated in the dark for 30 min and the reaction was terminated by adding 10 µL of 3 M NaOH. The absorbance was then determined at 405 nm wavelength. […] Inhibition (%) = [(OD405 − OD405 blank)/OD405 blank] × 100. IC50 was calculated from the percentage inhibition values.

Test [5] in a line: DPPH radical scavenging assay. The conditions noted are these: 37 °C, 30 min, 515 nm; for IC50: pure compounds, read-out: DPPH Scavenging Effects, IC50 Values. The protocol:
Radical scavenging assay was determined by a micro plate spectrophotometric method based on the reduction of DPPH according to the previous report. Various dilutions of pure compounds and crude extracts in the concentration range 0.0625 to 1 mM and 0.0625 to 1 mg∙mL^−1, respectively were made. Briefly DPPH solution (100 μL) and pure compound or crude extract in DMSO (100 μL) were added to each well of the micro plate and mixed. The mixture was shaken vigorously and left to stand at 37 °C for 30 min in dark. The absorbance of the solution was then measured at wavelength 515 nm using a micro plate spectrophotometer. Inhibition (%) of free radical (DPPH) was determined as [(Acontrol − Asample)/Acontrol] × 100, where: Acontrol is the absorbance of the control sample containing all reagents except the test sample and Asample is the absorbance of the test sample (pure compound or crude extract). Vitamin C was used as the positive control and tests were carried out in triplicate. The IC50 values were determined for all tested flavonoids, extract and control standard antioxidant.
(In general: DPPH is a stable violet radical that fades when it is reduced.)

The mark [6] stands for this setting: pNPP substrate, absorbance at 405 nm.

Where two headings read alike, the source gives them in different places.

Take `C[C@@H]1[C@H](O)[C@@H](C)/C=C/C=C/C=C/C=C/C=C/C=C/C=C/[C@H](O[C@@H]2O[C@H](C)[C@@H](O)[C@H](N)[C@@H]2O)C[C@@H]2O[C@](O)(C[C@@H](O)C[C@@H](O)[C@H](O)CC[C@@H](O)C[C@@H](O)CC(=O)O[C@H]1C)C[C@H](O)[C@H]2C(=O)O` [Amphotericin B, reference compound]: in test [1], the “Inhibition Zone Diameter CA” value is 15 mm.
In the case of `CC1(C)S[C@@H]2[C@H](NC(=O)[C@H](N)c3ccccc3)C(=O)N2[C@H]1C(=O)O` [Ampicillin, reference compound], the “Inhibition Zone Diameter SA” value in test [2] was determined as 19 mm. Besides, the “Inhibition Zone Diameter EC” value in test [3] was 14 mm.
Regarding `O=c1c(-c2c(O)cc(O)c3c(=O)cc(-c4ccc(O)cc4)oc23)c(-c2ccc(O)cc2)oc2cc(O)cc(O)c12` [Compound 1, 3-8′′-Bisapigenin], the IC50 was over 50 µM in test [4] (setting [6]) and over 500 µM in test [5]. Also, in test [1], the “Inhibition Zone Diameter CA” value was “n.e”. The “Inhibition Zone Diameter SA” value in test [2] was 5.5 mm. Further, the “Inhibition Zone Diameter EC” value in test [3] is “n.e”.
On to `O=c1c(O)c(-c2ccc(O)c(O)c2)oc2cc(O)cc(O)c12` [Compound 2, Quercetin], for which the “Inhibition Zone Diameter CA” value in test [1] was determined as 6.5 mm. Moreover, the “Inhibition Zone Diameter SA” value in test [2] was 12 mm. For the same compound, the “Inhibition Zone Diameter EC” value in test [3] was “n.e”. The IC50 in test [5] was found to be 24.9 ± 1.4 µM.
Turning to `O=c1c(O[C@@H]2O[C@@H](CO)[C@H](O)[C@H]2O)c(-c2ccc(O)c(O)c2)oc2cc(O)cc(O)c12` [Compound 3, Quercetin-3-O-α-L-arabinofuranoside], the IC50 was over 50 µM in test [4] (setting [6]) and 38.3 ± 2 µM in test [5]. Moreover, the “Inhibition Zone Diameter CA” value in test [1] is recorded as “n.e”. The “Inhibition Zone Diameter SA” value in test [2] is listed as “n.e”. Besides, the “Inhibition Zone Diameter EC” value in test [3] was 5.5 mm.
Consider `C[C@@H]1O[C@@H](Oc2c(-c3ccc(O)c(O)c3)oc3cc(O)cc(O)c3c2=O)[C@H](O)[C@H](O)[C@H]1O` [Compound 4, Quercetin-3-O-α-L-rhamnoside], for which the IC50 in test [4] is over 50 µM; in test [5] it was 32.1 ± 1.6 µM. Also, the “Inhibition Zone Diameter CA” value in test [1] worked out at 5.5 mm. The “Inhibition Zone Diameter SA” value in test [2] is given as “n.e”. Further, in test [3], the “Inhibition Zone Diameter EC” value was 8 mm.
`O=c1c(O[C@@H]2O[C@H](CO)[C@@H](O)[C@H](O)[C@H]2O)c(-c2ccc(O)c(O)c2)oc2cc(O)cc(O)c12` [Compound 5, Quercetin-3-O-β-D-glucopyranoside]: the IC50 in test [4] (setting [6]) is over 50 µM; in test [5], 24.8 ± 1.3 µM. For the same compound, the “Inhibition Zone Diameter CA” value in test [1] is “n.e”. The “Inhibition Zone Diameter SA” value in test [2] turned out to be 11 mm. In addition, the “Inhibition Zone Diameter EC” value in test [3] is listed as “n.e”.
`O=c1c(O[C@@H]2O[C@H](CO)[C@H](O)[C@H](O)[C@H]2O)c(-c2ccc(O)c(O)c2)oc2cc(O)cc(O)c12` [Compound 6, Quercetin-3-O-β-D-galactopyranoside]: the IC50 was over 50 µM in test [4] (setting [6]) and 29.5 ± 1.5 µM in test [5]. For the same compound, the “Inhibition Zone Diameter CA” value in test [1] is given as “n.e”. Besides, in test [2], the “Inhibition Zone Diameter SA” value worked out at 11 mm. Moreover, in test [3], the “Inhibition Zone Diameter EC” value is 6.5 mm.
Take `O=C1O[C@H]([C@@H](O)CO)C(O)=C1O` [Vitamin C, reference compound]: in test [5] (crude extracts), the “DPPH Scavenging Effects; IC50 Values” came to 5.34 ± 0.4 mg/L. In addition, in test [5], the IC50 was determined as 30.3 ± 2.4 µM.

Source of the values: paper PMC6272622, “Phytochemical Profiling and Evaluation of Pharmacological Activities of Hypericum scabrum L” (Molecules, 2015).
